Read-outs that look alike come from different tables or passages of the source. Marks after values point to notes of the source that are not given here.
How the values were obtained:
[1] = molecular target: α2 subunit-containing GABAA receptors (Homo sapiens, UniProt P18507+P47869); parameters: key: act as partial positive modulators for particular subtype combinations; none: zero efficacy (i.e., antagonism) at other subtypes; settings: cited from earlier work
rhesus monkeys [2] = settings: visual recognition memory and spatial working memory; cited from earlier work
[3] = molecular target: α5 subunit-containing GABAA receptors (Homo sapiens, UniProt P18507+P31644); parameters: key to Subtype α5: act as partial positive modulators for particular subtype combinations; none: zero efficacy (i.e., antagonism) at other subtypes; settings: cited from earlier work
[4] = molecular target: α3 subunit-containing GABAA receptors (Homo sapiens, UniProt P18507+P34903); parameters: key: act as partial positive modulators for particular subtype combinations; none: zero efficacy (i.e., antagonism) at other subtypes; settings: cited from earlier work
rhesus monkeys [5] = experiment: Conflict model of anxiolysis (mult FR, FR+PUN); type: in vivo, rhesus monkey; settings: i.v.; for Non-Suppressed, Mean responses/s (SEM) / Suppressed, Mean responses/s (SEM): N = 4 monkeys
Source text: The conflict procedure methodology includes a two-component multiple fixed-ratio, fixed-ratio plus punishment schedule (mult FR, FR+PUN). An important feature of this model is that it is highly predictive of clinically active doses in human subjects (Rowlett et al. 2006, Psychopharmacology 184: 201-11). One component of this schedule was associated with a distinctive visual stimulus (e.g., red light) and the other component was associated with a different stimulus (e.g., green light). In each component, completion of 10 responses (FR 10) produced a food pellet followed by a brief (10 sec) timeout period. The component ended following delivery of 5 food pellets or 5 min, whichever occurred first. A 10-min timeout period occurred before each of four cycles with two components (1 red, 1 green) per cycle. When performance in both components of the multiple schedule was stable, responding in one component was suppressed by superimposing a FR schedule of response-produced electric shock. Under the superimposed schedule, every nth response (n=15-25, adjusted for each monkey depending on individual performance) produced shock. Once responding was stable (at least three sessions in which suppressed responding was less than 50% of non-suppressed responding, with no upward or downward trend in response rates in either component), investigational compounds were administered i.v. during the extended timeout periods using a cumulative dosing technique. This technique allowed determination of a four-point dose-response function in a single session.
Table 2 summarizes data for TPA023B in the conflict procedure (n=4 monkeys, 2 females and 2 males), with alprazolam as a positive control. Average responses when vehicle was administered was 2.2 in the non-suppressed component, decreased by ˜98% by shock presentation in the suppressed component (mean=0.05 responses). For non-suppressed responding, TPA023B had no effects on mean rates of responding or percent of control over a 100-fold dose range (0.01 to 1.0 mg/kg, i.v.). […] This effect was similar to that observed with 0.03 mg/kg, i.v., of alprazolam. A striking characteristic of TPA023B in this procedure is the lack of attenuation of rates of responding at higher doses.

[6] = system: CNS benzodiazepine binding sites; settings: 1.5 mg/70 kg oral, PET; cited from earlier work
[7] = parameters: key to Pharmacokinetics: “poor” - low bioavailability and/or short half-life; “good” - potent with long half-life; settings: in vivo; cited from earlier work
rhesus monkeys [8] = experiment: Midazolam self-administration (PR) after TPA023B pretreatment; type: in vivo, rhesus monkey
Protocol: To test this, we have trained monkeys to self-administer the short-acting conventional benzodiazepine midazolam (0.056 mg/kg/injection, i.v.) in the PR procedure, as described above. During test sessions, we initially kept the training dose of midazolam constant, and administered i.v. pretreatments of TPA023B (0.003, 0.01, 0.03, 0.1, 0.3 mg/kg, of vehicle) immediately prior to the beginning of the session. A key consideration for any pharmacotherapy, as well as interpretation of blockade of reinforcing effects generally, is the extent to which the blockade is specific to the drug target and not a generalized suppression of behavior, e.g., due to sedative-motor effects inhibiting the ability of the monkey to press the lever. Another possible confounding factor that would potentially result in blockade of drug taking is general sickness or perceptual alterations. In particular, appetite suppression would represent an undesirable side effect in a benzodiazepine addiction pharmacotherapy.
To further evaluate the extent to which attenuation of responding was due to pharmacological antagonism and to evaluate an exemplary range of effective doses, we evaluated single doses of TPA023B administered prior to sessions in which differing doses of midazolam were tested.

men = settings: cited from earlier work

Chain of α3 subunit-containing GABAA receptors (P34903 29-492): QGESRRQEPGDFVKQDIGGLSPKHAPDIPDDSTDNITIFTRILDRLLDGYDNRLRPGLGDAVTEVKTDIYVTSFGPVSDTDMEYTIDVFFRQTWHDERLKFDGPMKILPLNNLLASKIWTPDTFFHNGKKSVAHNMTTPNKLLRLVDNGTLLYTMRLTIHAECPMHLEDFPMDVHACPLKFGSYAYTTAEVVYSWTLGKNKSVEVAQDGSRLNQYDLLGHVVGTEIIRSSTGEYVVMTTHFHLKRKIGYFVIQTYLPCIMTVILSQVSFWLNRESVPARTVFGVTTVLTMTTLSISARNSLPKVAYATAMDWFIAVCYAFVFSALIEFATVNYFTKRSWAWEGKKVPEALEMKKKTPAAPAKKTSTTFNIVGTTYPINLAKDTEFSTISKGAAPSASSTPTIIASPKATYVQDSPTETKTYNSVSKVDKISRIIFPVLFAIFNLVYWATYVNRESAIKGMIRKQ
Chain of α3 subunit-containing GABAA receptors (P18507 40-475): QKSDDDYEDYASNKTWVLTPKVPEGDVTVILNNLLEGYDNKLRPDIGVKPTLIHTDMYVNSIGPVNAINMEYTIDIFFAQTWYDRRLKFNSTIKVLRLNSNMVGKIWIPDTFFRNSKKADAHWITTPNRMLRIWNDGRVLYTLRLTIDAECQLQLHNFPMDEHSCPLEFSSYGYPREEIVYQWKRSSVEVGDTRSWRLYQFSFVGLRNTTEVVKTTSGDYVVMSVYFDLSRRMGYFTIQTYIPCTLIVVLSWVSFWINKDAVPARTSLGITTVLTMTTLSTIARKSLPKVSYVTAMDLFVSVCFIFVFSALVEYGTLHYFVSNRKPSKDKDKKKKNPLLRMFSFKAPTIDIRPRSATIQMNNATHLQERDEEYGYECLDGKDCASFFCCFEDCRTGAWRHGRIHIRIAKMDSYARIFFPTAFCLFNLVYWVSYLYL
Chain of α3 subunit-containing GABAA receptors (P28472 26-473 partner): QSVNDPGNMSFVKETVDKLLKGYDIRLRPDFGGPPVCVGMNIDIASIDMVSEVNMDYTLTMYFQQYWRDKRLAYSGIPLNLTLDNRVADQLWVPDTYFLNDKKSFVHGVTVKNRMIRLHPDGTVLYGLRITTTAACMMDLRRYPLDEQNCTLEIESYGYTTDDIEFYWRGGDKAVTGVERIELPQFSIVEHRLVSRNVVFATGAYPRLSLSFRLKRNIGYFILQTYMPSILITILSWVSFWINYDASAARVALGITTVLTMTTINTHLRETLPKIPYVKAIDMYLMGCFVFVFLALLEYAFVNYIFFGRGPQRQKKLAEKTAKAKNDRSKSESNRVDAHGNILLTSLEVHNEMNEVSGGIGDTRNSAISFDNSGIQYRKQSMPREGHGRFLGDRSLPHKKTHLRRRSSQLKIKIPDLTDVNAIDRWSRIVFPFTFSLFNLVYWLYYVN
Chain of α5 subunit-containing GABAA receptors (P31644 32-462): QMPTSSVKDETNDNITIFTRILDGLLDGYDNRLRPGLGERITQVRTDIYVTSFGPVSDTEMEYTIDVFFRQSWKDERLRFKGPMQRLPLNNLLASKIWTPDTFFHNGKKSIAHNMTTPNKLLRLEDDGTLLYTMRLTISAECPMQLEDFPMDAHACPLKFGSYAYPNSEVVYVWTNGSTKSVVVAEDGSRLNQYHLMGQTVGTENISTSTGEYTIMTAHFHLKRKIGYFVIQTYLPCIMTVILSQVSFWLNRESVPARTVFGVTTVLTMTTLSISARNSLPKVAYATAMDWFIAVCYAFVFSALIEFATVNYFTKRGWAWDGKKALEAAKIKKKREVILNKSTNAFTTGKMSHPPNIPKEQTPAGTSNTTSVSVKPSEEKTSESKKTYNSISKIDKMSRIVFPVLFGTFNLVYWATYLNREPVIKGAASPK
Chain of α5 subunit-containing GABAA receptors (P18507 40-475): as the sequence (P18507 40-475) above
Chain of α5 subunit-containing GABAA receptors (P28472 26-473 partner): as the sequence (P28472 26-473 partner) above
Chain of α2 subunit-containing GABAA receptors (P47869 29-451): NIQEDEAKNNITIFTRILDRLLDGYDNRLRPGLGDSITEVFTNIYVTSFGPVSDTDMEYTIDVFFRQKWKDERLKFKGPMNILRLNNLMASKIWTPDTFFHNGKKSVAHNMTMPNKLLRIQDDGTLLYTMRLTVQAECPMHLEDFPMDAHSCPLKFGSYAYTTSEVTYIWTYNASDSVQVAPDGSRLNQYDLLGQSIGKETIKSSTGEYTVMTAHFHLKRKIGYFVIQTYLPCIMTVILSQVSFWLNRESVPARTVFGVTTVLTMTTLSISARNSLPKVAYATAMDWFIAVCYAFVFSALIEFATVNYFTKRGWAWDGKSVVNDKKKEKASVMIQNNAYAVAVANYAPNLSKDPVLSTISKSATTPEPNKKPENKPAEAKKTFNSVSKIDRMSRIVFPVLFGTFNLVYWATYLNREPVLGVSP
Chain of α2 subunit-containing GABAA receptors (P18507 40-475): as the sequence (P18507 40-475) above
Chain of α2 subunit-containing GABAA receptors (P28472 26-473 partner): as the sequence (P28472 26-473 partner) above

Structure (SMILES): CC(C)(O)c1cnn2c(-c3ccc(F)c(-c4c(F)cccc4C#N)c3)cnc2n1 [TPA023B]
- Subtype α2 [1]: partial
- accuracy in DMTS and SOSS tasks (rhesus monkeys [2]): did not alter accuracy
- Subtype α5 [3]: partial
- Subtype α3 [4]: partial
- Non-Suppressed, Mean responses/s (SEM) (rhesus monkeys [5]; 0.01 mg/kg): 2.0 (0.08) responses/s
- Suppressed, Mean responses/s (SEM) (rhesus monkeys [5]; 0.01 mg/kg): 0.03 (0.02) responses/s
- Non-Suppressed, Mean responses/s (SEM) (rhesus monkeys [5]; 0.1 mg/kg): 2.0 (0.15) responses/s
- Suppressed, Mean responses/s (SEM) (rhesus monkeys [5]; 0.1 mg/kg): 2.46 (0.40)* responses/s
- Non-Suppressed, Mean responses/s (SEM) (rhesus monkeys [5]; 1.0 mg/kg): 2.1 (0.97) responses/s
- Suppressed, Mean responses/s (SEM) (rhesus monkeys [5]; 1.0 mg/kg): 2.00 (0.75)* responses/s
- effect on non-suppressed responding (mean rates, percent of control) (rhesus monkeys [5]; 100-fold dose range, 0.01 to 1.0 mg/kg): no effects
- effect on rates of suppressed responding (anti-conflict effect) (rhesus monkeys [5]; reaching non-suppressed levels at 0.1 mg/kg): significantly enhanced
- occupancy of CNS benzodiazepine binding sites [6]: 50-55%
- Pharmacokinetics [7]: good
- effect on midazolam dose-response function (rhesus monkeys [8]; TPA023B 0.01 mg/kg pretreatment): shifted the midazolam dose-response function to the right
- reduction of midazolam-maintained responding (rhesus monkeys [8]; TPA023B 0.03 mg/kg i.v. pretreatment, midazolam 0.018 and 0.056 mg/kg/injection): > 50%
- midazolam self-administration, percent maximum (rhesus monkeys [8]; all midazolam doses, FIG. 8): below 50%
- doses with both anti-conflict effects and blockade of midazolam self-administration (rhesus monkeys [8]; conflict and self-administration data combined, FIG. 8): ≥ 0.03 mg/kg
- midazolam self-administration, % of maximum (rhesus monkeys [8]; higher doses of TPA023B (above 0.01 mg/kg), even at higher midazolam doses): < 50%
- midazolam self-administration, percent maximum (rhesus monkeys [8]; highest TPA023B dose, FIG. 8): below 25%
- effect on self-administration of midazolam (rhesus monkeys [8]; pretreatment with 0.003 mg/kg TPA023B): did not attenuate
- ataxia (men; any dose, up to 3.0 mg/70 kg): No ataxia
- adverse effects (men; oral, 1.5 mg/70 kg, men): no adverse effects
- adverse effects (men; oral, 3.0 mg/70 kg, men): fatigue and drowsiness in some subjects
- subjects with fatigue and drowsiness (men; oral, 3.0 mg/70 kg, men): 1-4 subjects out of 8 total
